# Measured values: US20200038513A1, “MODULATORS OF FAK PROTEOLYSIS AND ASSOCIATED METHODS OF USE” (ARVINAS OPERATIONS, INC., priority 2018, published 2020)
# Read-outs that look alike come from different tables or passages of the source.
# Assays:
# [1] = Pharmacokinetics of intraperitoneal or intravenous injection in CD1 mice; assay type: in vivo; conditions: for Conc. (ng/mL) Mouse 1 / Conc. (ng/mL) Mouse 2 / Conc. (ng/mL) Mouse 3 / concentration at 0.25 h / concentration at 0.5 h / concentration at 1 h / concentration at 2 h / concentration at 4 h / concentration at 8 h / concentration at 0.033 h / concentration at 0.083 h: CD1 mice plasma; for concentration at 0.25 h / concentration at 0.5 h / concentration at 1 h / concentration at 2 h / concentration at 4 h / concentration at 8 h / AUC(0-t) / half-life / concentration at 0.033 h / concentration at 0.083 h: male, CD1, mouse, plasma
# Procedure: The pharmacokinetics of exemplary compounds 103, 107, 100, 101, and 102 was examined for intraperitoneal and intravenous administration. The desired serial concentrations of working solutions were achieved by diluting stock solution (1 mg/mL in DMSO) of analyte with methanol. In particular, 20 μL of working solutions (1, 2, 5, 10, 50, 100, 500, 1000, 2000 ng/mL) were added to 20 μL of the blank CD1 mice plasma to achieve calibration standards of 1-2000 ng/mL (1, 2, 5, 10, 50, 100, 500, 1000, 2000 ng/mL) in a total volume of 40 μL. Dose of IV and IP were diluted by 1000 fold and 10000 with methanol, 20 μL of the diluted dose solutions were added to 20 μL of the blank CD1 mice plasma to achieve dose samples. Next, 40 μL standards and 40 μL dose samples were added to 20 μL of IS (100 ng/mL) and 200 μL of acetonitrile for precipitating protein respectively. Then the samples were vortexed for 30 seconds. After centrifugation at 4 degree Celsius, 4000 rpm for 15 minutes, the supernatant was diluted 3 times with water. 10 μL of the diluted supernatant was injected into the LC/MS/MS system for quantitative analysis.
# Exemplary compounds 103, 107, 100, 101, and 102 were administered intravenously (5 second injection of 10% HP-b-CD and 40 mM sodium acetate and 40 mM NaCl in water, pH4.5) or intraperitoneally (5% EtOH and 5% Solutol HS15 in D5W(ESD-2)) to 6-8 week old male CD1 mice (3 mice per treatment group for a total of 12 mice) at the time points indicated below in Table 7. The mice had free access to food and water.
# Dorsal metatarsal vein samples (30 μL), except that the final sample was acquired via a heart puncture, were taken from the mice at the same the administration time points as shown in Table 7.
# PPB = assay type: in vitro ADME; conditions: plasma
# [2] = ip, 10 mg/kg, IP 10 mg/kg, read-out: Conc. (ng/mL) Mouse 1
# [3] = ip, 10 mg/kg, IP 10 mg/kg, read-out: Conc. (ng/mL) Mouse 2
# [4] = ip, 10 mg/kg, IP 10 mg/kg, read-out: Conc. (ng/mL) Mouse 3
# [5] = ip, 10 mg/kg, IP 10 mg/kg, read-out: Mean
# [6] = iv, 1 mg/kg, IV 1.0 mg/kg, read-out: Conc. (ng/mL) Mouse 1
# [7] = iv, 1 mg/kg, IV 1.0 mg/kg, read-out: Conc. (ng/mL) Mouse 2
# [8] = iv, 1 mg/kg, IV 1.0 mg/kg, read-out: Conc. (ng/mL) Mouse 3
# [9] = iv, 1 mg/kg, IV 1.0 mg/kg, read-out: Mean
structure (smiles),measurement,setting,value
"Cc1ncsc1-c1ccc(CNC(=O)[C@@H]2C[C@@H](O)CN2C(=O)[C@@H](NC(=O)CCOCCOc2ccc(Nc3ncc(C(F)(F)F)c(NCc4cccc(N(C)S(C)(=O)=O)c4)n3)cc2)C(C)(C)C)cc1 [Compound 102, (2S,4R)-1-((S)-3,3-dimethyl-2-(3-(2-(4-((4-((3-(N-methylmethylsulfonamido)benzyl)amino)-5-(trifluoromethyl)pyrimidin-2-yl)amino)phenoxy)ethoxy)propanamido)butanoyl)-4-hydroxy-N-(4-(4-methylthiazol-5-yl)benzyl)pyrrolidine-2-carboxamide]",Conc. (ng/mL) Mouse 1,"[1]; IP 10 mg/kg, 24 h",BLOQ
same,Conc. (ng/mL) Mouse 2,"[1]; IP 10 mg/kg, 24 h",BLOQ
same,Conc. (ng/mL) Mouse 3,"[1]; IP 10 mg/kg, 24 h",BLOQ
same,Conc. (ng/mL) Mouse 1,"[1]; IV 1.0 mg/kg, 4 h",BLOQ
same,Conc. (ng/mL) Mouse 2,"[1]; IV 1.0 mg/kg, 4 h",BLOQ
same,Conc. (ng/mL) Mouse 1,"[1]; IV 1.0 mg/kg, 8 h",BLOQ
same,Conc. (ng/mL) Mouse 2,"[1]; IV 1.0 mg/kg, 8 h",BLOQ
same,Conc. (ng/mL) Mouse 3,"[1]; IV 1.0 mg/kg, 8 h",BLOQ
same,Conc. (ng/mL) Mouse 1,"[1]; IV 1.0 mg/kg, 24 h",BLOQ
same,Conc. (ng/mL) Mouse 2,"[1]; IV 1.0 mg/kg, 24 h",BLOQ
same,Conc. (ng/mL) Mouse 3,"[1]; IV 1.0 mg/kg, 24 h",BLOQ
same,concentration at 0.25 h,[1]; [2],521 ng/mL
same,concentration at 0.25 h,[1]; [3],432 ng/mL
same,concentration at 0.25 h,[1]; [4],338 ng/mL
same,concentration at 0.25 h,[1]; [5],431 ng/mL
same,concentration at 0.5 h,[1]; [2],674 ng/mL
same,concentration at 0.5 h,[1]; [3],546 ng/mL
same,concentration at 0.5 h,[1]; [4],551 ng/mL
same,concentration at 0.5 h,[1]; [5],591 ng/mL
same,concentration at 1 h,[1]; [2],2540 ng/mL
same,concentration at 1 h,[1]; [3],2130 ng/mL
same,concentration at 1 h,[1]; [4],2120 ng/mL
same,concentration at 1 h,[1]; [5],2260 ng/mL
same,concentration at 2 h,[1]; [2],1690 ng/mL
same,concentration at 2 h,[1]; [3],1070 ng/mL
same,concentration at 2 h,[1]; [4],1700 ng/mL
same,concentration at 2 h,[1]; [5],1490 ng/mL
same,concentration at 4 h,"[1]; ip, 10 mg/kg, IP 10 mg/kg, 4 h, read-out: Conc. (ng/mL) Mouse 1",560 ng/mL
same,concentration at 4 h,"[1]; ip, 10 mg/kg, IP 10 mg/kg, 4 h, read-out: Conc. (ng/mL) Mouse 2",529 ng/mL
same,concentration at 4 h,"[1]; ip, 10 mg/kg, IP 10 mg/kg, 4 h, read-out: Conc. (ng/mL) Mouse 3",559 ng/mL
same,concentration at 4 h,"[1]; ip, 10 mg/kg, IP 10 mg/kg, 4 h, read-out: Mean",549 ng/mL
same,concentration at 8 h,"[1]; ip, 10 mg/kg, IP 10 mg/kg, 8 h, read-out: Conc. (ng/mL) Mouse 1",36.4 ng/mL
same,concentration at 8 h,"[1]; ip, 10 mg/kg, IP 10 mg/kg, 8 h, read-out: Conc. (ng/mL) Mouse 2",92.3 ng/mL
same,concentration at 8 h,"[1]; ip, 10 mg/kg, IP 10 mg/kg, 8 h, read-out: Conc. (ng/mL) Mouse 3",124 ng/mL
same,concentration at 8 h,"[1]; ip, 10 mg/kg, IP 10 mg/kg, 8 h, read-out: Mean",84 ng/mL
same,AUC(0-t),"[1]; ip, 10 mg/kg, read-out: AUClast (h * ng/mL) IP",6260 ng·h/mL
same,half-life,"[1]; ip, 10 mg/kg, read-out: T ½ (h) IP (converted)",1.46 h
same,concentration at 0.033 h,[1]; [6],1920 ng/mL
same,concentration at 0.033 h,[1]; [7],1820 ng/mL
same,concentration at 0.033 h,[1]; [8],1850 ng/mL
same,concentration at 0.033 h,[1]; [9],1860 ng/mL
same,concentration at 0.083 h,[1]; [6],249 ng/mL
same,concentration at 0.083 h,[1]; [7],368 ng/mL
same,concentration at 0.083 h,[1]; [8],333 ng/mL
same,concentration at 0.083 h,[1]; [9],317 ng/mL
same,concentration at 0.25 h,[1]; [6],55.9 ng/mL
same,concentration at 0.25 h,[1]; [7],67.4 ng/mL
same,concentration at 0.25 h,[1]; [8],71.8 ng/mL
same,concentration at 0.25 h,[1]; [9],65.1 ng/mL
same,concentration at 0.5 h,[1]; [6],23.7 ng/mL
same,concentration at 0.5 h,[1]; [7],33.2 ng/mL
same,concentration at 0.5 h,[1]; [8],37.6 ng/mL
same,concentration at 0.5 h,[1]; [9],31.5 ng/mL
same,concentration at 1 h,[1]; [6],11.8 ng/mL
same,concentration at 1 h,[1]; [7],16.7 ng/mL
same,concentration at 1 h,[1]; [8],18.4 ng/mL
same,concentration at 1 h,[1]; [9],15.6 ng/mL
same,concentration at 2 h,[1]; [6],6.9 ng/mL
same,concentration at 2 h,[1]; [7],9.2 ng/mL
same,concentration at 2 h,[1]; [8],6.75 ng/mL
same,concentration at 2 h,[1]; [9],7.62 ng/mL
same,concentration at 4 h,"[1]; iv, 1 mg/kg, IV 1.0 mg/kg, 4 h, read-out: Conc. (ng/mL) Mouse 3",2.09 ng/mL
same,AUC(0-t),"[1]; iv, 1 mg/kg, read-out: AUClast (h * ng/mL) IV",264 ng·h/mL
same,half-life,"[1]; iv, 1 mg/kg, read-out: T ½ (h) IV (converted)",0.905 h
same,fraction unbound,PPB,0.0066
